Source: PMC3934494 (Chemistry & biology, 2013)
Where two headings read alike, the source gives them in different places.

Experiments:
Microsomal stability [1] = format: in vitro ADME; conditions: human microsomes
Microsomal stability [2] = format: in vitro ADME; conditions: rat microsomes
WT clade B virus = assay: PhenoSense HIV antiviral assay; format: cell-based
[3] = system: 12 patient-derived drug resistant viruses; assay: PhenoSense HIV antiviral assay; format: cell-based
[4] = biological target: HIV-1 protease variant M3: I50V/A71V (Human immunodeficiency virus type 1 group M subtype B, UniProt P04585, A559V/I538V); assay: FRET-based enzymatic assay, enzyme inhibition constants; format: biochemical; conditions: M3 versus WT protease
WT HIV-1 protease = WT HIV-1 protease (Human immunodeficiency virus type 1 group M subtype B, UniProt P04585); conditions: FDA-approved drugs, ref Nalam, et al., 2010; cited from earlier work

SMILES	Microsomal Stability (Avg. % Fraction Remaining) at 30 Minutes Human (Microsomal stability [1]; RTV +) [%]	Microsomal Stability (Avg. % Fraction Remaining) at 30 Minutes Human (Microsomal stability [1]; RTV −) [%]	Microsomal Stability (Avg. % Fraction Remaining) at 60 Minutes Human (Microsomal stability [1]; RTV +) [%]	Microsomal Stability (Avg. % Fraction Remaining) at 60 Minutes Human (Microsomal stability [1]; RTV −) [%]	Microsomal CLint Human (Microsomal stability [1]; RTV +) [μL min^-1 mg^1]	Microsomal T1/2 Human (Microsomal stability [1]; RTV +) [min]	Microsomal CLint Human (Microsomal stability [1]; RTV −) [μL min^-1 mg^1]	Microsomal T1/2 Human (Microsomal stability [1]; RTV −) [min]	Microsomal Stability (Avg. % Fraction Remaining) at 30 Minutes Rat (Microsomal stability [2]; RTV +) [%]	Microsomal Stability (Avg. % Fraction Remaining) at 30 Minutes Rat (Microsomal stability [2]; RTV −) [%]	Microsomal Stability (Avg. % Fraction Remaining) at 60 Minutes Rat (Microsomal stability [2]; RTV +) [%]	Microsomal Stability (Avg. % Fraction Remaining) at 60 Minutes Rat (Microsomal stability [2]; RTV −) [%]	Microsomal CLint Rat (Microsomal stability [2]; RTV +) [μL min^-1 mg^1]	Microsomal T1/2 Rat (Microsomal stability [2]; RTV +) [min]	Microsomal CLint Rat (Microsomal stability [2]; RTV −) [μL min^-1 mg^1]	Microsomal T1/2 Rat (Microsomal stability [2]; RTV −) [min]	EC50 (WT clade B virus; WT clade B virus)	other results
CCC(CC)CN(C[C@@H](O)[C@H](Cc1ccccc1)NC(=O)O[C@H]1CO[C@H]2OCC[C@H]21)S(=O)(=O)c1ccc2c(c1)OCO2 [11d]	55	0	46	0	46	45	617	3	21	0	4	0	156	13	712	3		
CC[C@H](C)CN(C[C@@H](O)[C@H](Cc1ccccc1)NC(=O)O[C@H]1CO[C@H]2OCC[C@H]21)S(=O)(=O)c1ccc2c(c1)OCO2 [10d]	80	9	60	4	24	85	232	9	0	0	0	0	771	3	987	2	more potent	
CC[C@H](C)CN(C[C@@H](O)[C@H](Cc1ccccc1)NC(=O)O[C@H]1CO[C@H]2OCC[C@H]21)S(=O)(=O)c1ccc(CO)cc1 [10c]	93	0	89	0	8	>180	590	4	45	0	22	0	79	26	664	3		
CCC(CC)CN(C[C@@H](O)[C@H](Cc1ccccc1)NC(=O)O[C@H]1CO[C@H]2OCC[C@H]21)S(=O)(=O)c1ccc(CO)cc1 [11c]	64	0	69	0	26	81	829	3	79	0	57	0	27	78	907	2		
CC[C@H](C)CN(C[C@@H](O)[C@H](Cc1ccccc1)NC(=O)O[C@H]1CO[C@H]2OCC[C@H]21)S(=O)(=O)c1ccc(OC)cc1 [10b]	79	0	68	0	19	110	776	3	0	0	0	0	518	4	885	2	more potent	EC50 ([3]; read-out: average EC50, average against 12 different drug resistant strains): 1.33 nM
CC[C@H](C)CN(C[C@@H](O)[C@H](Cc1ccccc1)NC(=O)O[C@H]1CO[C@H]2OCC[C@H]21)S(=O)(=O)c1ccc(N)cc1 [10a]	81	42	66	19	21	99	81	26	51	24	35	9	67	31	129	16		
CCC(CC)CN(C[C@@H](O)[C@H](Cc1ccccc1)NC(=O)O[C@H]1CO[C@H]2OCC[C@H]21)S(=O)(=O)c1ccc(OC)cc1 [11b]	75	0	66	0	23	90	844	2	50	18	20	19	74	28	150	14	more potent	
CC(C)CN(C[C@@H](O)[C@H](Cc1ccccc1)NC(=O)O[C@H]1CO[C@H]2OCC[C@H]21)S(=O)(=O)c1ccc(N)cc1 [DRV, Darunavir]																		decrease in M3 susceptibility compared to WT protease [4]: 50 fold; EC50 ([3]; Human immunodeficiency virus 1, read-out: average EC50): 5.98 nM; antiviral potency ([3]; MDR strains with the I50V protease mutation): loses significant potency; EC50 (WT clade B virus): 0.4 nM
Cc1cccc(C)c1OCC(=O)N[C@@H](Cc1ccccc1)[C@@H](O)C[C@H](Cc1ccccc1)NC(=O)[C@H](C(C)C)N1CCCNC1=O [LPV]																		Ki (WT HIV-1 protease): 5 pM
